From patent US20260116874A1, “HETEROAROMATIC INDOLESULFONAMIDES” (SEED Therapeutics, Inc., priority 2023, published 2026)
Where two headings read alike, the source gives them in different places.

What was measured:
MDR1 = target: T1, MDR1 (Homo sapiens, UniProt P08183); assay: MDCK-MDR1 permeability / efflux assay; type: in vitro ADME, canine; conditions: dog; for Papp A→B at 2 h, 1 µM: MDCK-MDR1, pH 7.4, MDCK cells, apical to basolateral
T1 construct: expressed in transfected cells; host or cells: MDCK-MDR1 cells (MDCK host)
Procedure: To prepare transport buffer (HBSS with 10 mM HEPES, pH 7.4), 2.383 g of HEPES and 0.35 g sodium hydrogen carbonate was accurately weighed and added into 900 mL of pure water, then sonicated to dissolve the content. Into the solution was transferred 100 mL of 10×HBSS, and the solution was placed on a stirrer. The pH of the solution was slowly adjusted with sodium hydroxide to 7.4, followed with filtering.
MDCK-MDR1 plate(s) were removed from the incubator. The monolayer was washed the monolayer twice with pre-warmed HBSS (10 mM HEPES, pH 7.4). Then the plate(s) were incubated at 37° C. for 30 minutes.
Propranolol was used as the high permeability marker. Digoxin was used as the substrate of […] (MDR1). Stock solutions of test compound(s) and digoxin in DMSO at 0.2 mM were prepared and diluted with HBSS (10 mM HEPES, pH 7.4) to get 1 μM working solutions. Stock solutions of propranolol in DMSO at 1 mM was prepared and diluted with HBSS (10 mM HEPES, pH 7.4) to get 5 μM working solutions.
To determine the rate of drug transport in the apical to basolateral direction, 125 μL of the working solution was added to the Transwell insert (apical compartment), and a 50 μL sample was immediately transferred from the apical compartment to 200 μL quenching solvents (acetonitrile with 100 nM alprazolam, 200 nM caffeine, 200 nM labetalol and 100 nM tolbutamide) in a new 96-well plate as the initial donor sample (A-B). The plate was shaken at 1000 rpm for 10 minutes. The wells in the receiver plate (basolateral compartment) were filled with 235 μL of transport buffer. All incubations were performed in duplicate.
To determine the rate of drug transport in the basolateral to apical direction, 285 μL of the 1 μM working solution was added to the receiver plate wells (basolateral compartment), and a 50 μL sample was immediately transferred from the basolateral compartment to 200 μL quenching solvents (acetonitrile with 100 nM alprazolam, 200 nM caffeine, 200 nM labetalol and 100 nM tolbutamide) in a new 96-well plate as the initial donor sample (B-A). Shake the plate at 1000 rpm 10 minutes. The Transwell insert (apical compartment) was filled with 75 μL of transport buffer. The apical to basolateral direction and the basolateral to apical direction were done at the same time.
The Transwell insert plate was inserted into the basolateral plate, transferred into the incubator and incubated at 37° C. for 2 hours.
At the end of the incubation, 50 μL samples from donor sides (apical compartment for Ap→Bl flux, and basolateral compartment for Bl→Ap flux) and receiver sides (basolateral compartment for Ap→Bl flux, and apical compartment for Bl→Ap flux) were transferred to wells of a new 96-well plate, followed by the addition of 4 volume of quenching solvents (acetonitrile with 100 nM alprazolam, 200 nM caffeine, 200 nM labetalol and 100 nM tolbutamide). Samples were Vortexed for 10 minutes and then centrifuged at 3,220 g for 40 minutes. An aliquot of 100 μL of the supernatant was mixed with an appropriate volume of ultra-pure water before LC-MS/MS analysis.
To determine the Lucifer yellow leakage after 2-hour transport period, Lucifer yellow working solutions were prepared by diluting the stock solution with HBSS (10 mM HEPES, pH 7.4) to reach the final concentration of 100 μM. To the apical compartment, 100 μL of the Lucifer yellow solution were added. The plate(s) were incubated at 37° C. for 30 minutes and 80 μL was directly removed from the apical and basolateral wells and transferred to new 96 wells plates. Lucifer yellow fluorescence (to monitor monolayer integrity) was measured in a fluorescence plate reader at 485 nm excitation and 530 nm emission.

[1] = Single dose plasma pharmacokinetics after IV and PO administration; type: in vivo, female BALB/c mice; conditions: for F: PO 20 mg/kg vs IV 1 mg/kg; for F / AUC(0-t) / Cmax / AUC(0-inf) / C0 / clearance / half-life / Vd / Tmax: female BALB/c mice; for AUC(0-t) / Cmax: female, BALB/c; for AUC(0-t) / Cmax / AUC(0-inf) / C0 / clearance / half-life / Vd / Tmax: mouse, plasma; for Vd: read-out: Vss
Procedure: Single dose PK parameters in plasma were determined following intravenous administration of compound 1 and comparative compound E7820 at 1 mg/kg by using the formulation of 10% DMSO/30% PEG400/60% Saline. The plasma samples were collected at the following time points: 0.083, 0.25, 0.5, 1, 2, 4, 8 and 24 hrs post-dose. The concentrations in plasma were determined.
Single dose PK parameters in plasma were determined following oral gavage of Compound 1 and comparative compound E7820 at 20 mg/kg by using the formulation of 0.5% MC (400 cps) and 0.1% Tween80 in water. The plasma samples were collected at the following time points: 0.25, 0.5, 1, 2, 4, 8 and 24 hrs post dose.
Single dose PK parameters were also determined for Compound 143, a deuterated derivative of Compound 1, according to the methods described herein. […] Metabolic stability was assessed by measuring the half-life of the test compounds in human and mouse liver microsomes.

[2] = MDCK-MDR1, pH 7.4, MDCK cells, Table 6, read-out: MDCK Permeability Efflux Ratio
[3] = MDCK-MDR1, pH 7.4, MDCK-MDR1, 1 μM, 2 hours, Table 3, read-out: MDCK-MDR1 Efflux ratio
[4] = iv, 1 mg/kg, IV 1 mg/kg, read-out: AUC(0-t)
[5] = po, 20 mg/kg, AUC(0-8 hr), oral administration, Table 7
[6] = po, 20 mg/kg, PO 20 mg/kg, read-out: AUC(0-t)
[7] = po, 20 mg/kg, oral administration, Table 7

T1 sequence (P08183 whole entry): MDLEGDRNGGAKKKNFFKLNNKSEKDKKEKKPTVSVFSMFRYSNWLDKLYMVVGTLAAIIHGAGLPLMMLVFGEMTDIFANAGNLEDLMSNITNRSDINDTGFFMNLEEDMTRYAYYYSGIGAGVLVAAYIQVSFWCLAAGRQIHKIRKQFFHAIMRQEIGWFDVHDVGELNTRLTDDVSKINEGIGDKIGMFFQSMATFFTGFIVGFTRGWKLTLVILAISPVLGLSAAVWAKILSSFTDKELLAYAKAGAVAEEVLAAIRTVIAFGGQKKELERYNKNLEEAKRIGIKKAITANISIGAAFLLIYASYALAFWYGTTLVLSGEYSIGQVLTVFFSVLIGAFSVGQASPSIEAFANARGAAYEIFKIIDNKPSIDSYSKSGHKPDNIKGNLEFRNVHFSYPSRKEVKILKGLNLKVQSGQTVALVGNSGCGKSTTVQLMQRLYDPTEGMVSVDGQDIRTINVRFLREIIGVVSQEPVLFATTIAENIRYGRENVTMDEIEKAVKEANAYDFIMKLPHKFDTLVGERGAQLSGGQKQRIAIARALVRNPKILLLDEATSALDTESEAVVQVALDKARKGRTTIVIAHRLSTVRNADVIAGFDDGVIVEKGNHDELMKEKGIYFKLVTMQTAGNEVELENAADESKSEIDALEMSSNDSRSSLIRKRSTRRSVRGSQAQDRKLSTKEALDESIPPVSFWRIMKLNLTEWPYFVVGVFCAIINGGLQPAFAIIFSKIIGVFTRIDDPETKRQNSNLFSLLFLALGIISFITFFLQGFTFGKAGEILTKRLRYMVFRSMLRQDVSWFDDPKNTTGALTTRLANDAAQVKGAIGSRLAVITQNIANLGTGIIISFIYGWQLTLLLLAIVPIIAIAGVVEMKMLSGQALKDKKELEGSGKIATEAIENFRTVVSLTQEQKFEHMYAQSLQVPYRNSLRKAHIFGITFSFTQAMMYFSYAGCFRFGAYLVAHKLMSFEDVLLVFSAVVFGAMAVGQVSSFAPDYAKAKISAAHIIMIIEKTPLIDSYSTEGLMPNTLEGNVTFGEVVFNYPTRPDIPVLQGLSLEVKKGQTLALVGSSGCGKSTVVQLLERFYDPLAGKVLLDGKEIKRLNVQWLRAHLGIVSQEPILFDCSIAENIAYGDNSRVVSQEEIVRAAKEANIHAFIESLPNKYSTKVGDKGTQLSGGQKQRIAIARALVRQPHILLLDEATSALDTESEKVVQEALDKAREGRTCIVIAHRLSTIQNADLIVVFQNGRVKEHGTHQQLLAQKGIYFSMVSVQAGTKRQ

efflux ratio at 2 h, 1 µM (MDR1; [2])	efflux ratio at 2 h, 1 µM (MDR1; [3])	Papp A→B at 2 h, 1 µM (MDR1; Table 6) [×10⁻⁶ cm/s]	F [1] [%]	AUC(0-t) [1, 4] [ng·h/mL]	AUC(0-t) [1, 5] [ng·h/mL]	Cmax ([1]; po, 20 mg/kg, PO 20 mg/kg) [ng/mL]	AUC(0-t) [1, 6] [ng·h/mL]	Cmax [1, 7] [ng/mL]	AUC(0-inf) ([1]; IV 1 mg/kg) [ng·h/mL]	C0 ([1]; IV 1 mg/kg) [ng/mL]	clearance ([1]; IV 1 mg/kg) [mL/min/kg]	half-life ([1]; IV 1 mg/kg) [h]	Vd ([1]; IV 1 mg/kg) [L/kg]	AUC(0-inf) ([1]; PO 20 mg/kg) [ng·h/mL]	Tmax ([1]; PO 20 mg/kg) [h]	half-life ([1]; PO 20 mg/kg) [h]	increase in plasma AUC compared to E7820 ([1]; oral administration, compared to control compound E7820)	plasma AUC compared to Compound 1 ([1]; oral administration, compared to Compound 1, in words)	Structure (SMILES)
26	25.5	1.9	407	1860	62300	25900	151000	9850	1860	6060	9.4	0.67	0.201	190000	2.33	2.52	greater than 2 fold	–	Cc1ncc(S(=O)(=O)Nc2ccc(C)c3c(C#N)c[nH]c23)s1 [Compound 1, N-(3-cyano-4-methyl-1H-indol-7-yl)-2-methyl-thiazole-5-sulfonamide]
12	–	2.9	–	–	107000	–	–	19300	–	–	–	–	–	–	–	–	–	increase	[2H]C([2H])([2H])c1ncc(S(=O)(=O)Nc2ccc(C)c3c(C#N)c[nH]c23)s1 [Compound 143, N-(3-cyano-4-methyl-1H-indol-7-yl)-2-(methyl-d3)thiazole-5-sulfonamide]
30	29.9	1.1	202	1640	–	11500	66200	–	1650	3150	10.2	0.541	0.393	–	2.67	–	–	–	Cc1ccc(NS(=O)(=O)c2cccc(C#N)c2)c2[nH]cc(C#N)c12 [Compound E7820, E7820, reference compound]
